Laboratory results taken from ChEMBL document CHEMBL1201862, “PubChem BioAssay data set” (2004).
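Interpolation was linear, between the two tested concentrations surrounding the appropriate level; five concentrations were tested over 48 hours in 96-well plates. GI50 marks 50% less growth.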 Activity calls are given as the source filed them. No stated cut-off is given here; in the data, active = GI50 up to about 1.1 µM and inactive = higher.

Assays:
Experiment in all cases: growth of human tumour cells (NCI), 48 h
CAKI-1 = tested on: CAKI-1
HL-60 = tested on: HL-60
HOP-62 = tested on: HOP-62
IGROV-1 = tested on: IGROV-1
Malme-3M = tested on: Malme-3M
NCI-H23 = tested on: NCI-H23
OVCAR-3 = tested on: OVCAR-3
OVCAR-5 = tested on: OVCAR-5
OVCAR-8 = tested on: OVCAR-8
RPMI-8226 = tested on: RPMI-8226
RXF 393 = tested on: RXF 393
SF-268 = tested on: SF-268
SNB-19 = tested on: SNB-19
SNB-75 = tested on: SNB-75
SR = tested on: SR
SW-620 = tested on: SW-620
SK-OV-3 = tested on: SK-OV-3
UO-31 = tested on: UO-31

Measured: GI50

CS/C(=N\c1ccc([N+](=O)[O-])cc1C#N)NC(=O)c1ccccc1
inactive: CAKI-1 94.2 µM | HL-60 > 100 µM | HOP-62 > 100 µM | IGROV-1 > 100 µM | Malme-3M > 100 µM | NCI-H23 > 100 µM | OVCAR-3 > 100 µM | OVCAR-5 > 100 µM | OVCAR-8 > 100 µM | RPMI-8226 > 100 µM | RXF 393 40.4 µM | SF-268 > 100 µM | SNB-19 > 100 µM | SNB-75 28.4 µM | SR > 100 µM | SW-620 > 100 µM

N#CCCN(CCC#N)C(=O)c1cccc(C(=O)N(CCC#N)CCC#N)c1
inactive: CAKI-1 > 100 µM | HL-60 > 55.2 µM | HOP-62 > 100 µM | IGROV-1 > 100 µM | Malme-3M 72.1 µM | NCI-H23 > 41.9 µM | OVCAR-3 > 100 µM | OVCAR-5 > 100 µM | OVCAR-8 > 50 µM | RPMI-8226 > 50.4 µM | RXF 393 4.07 µM | SF-268 > 100 µM | SK-OV-3 > 100 µM | SNB-19 > 61 µM | SNB-75 > 44.6 µM | SR > 44.2 µM | SW-620 13.4 µM | UO-31 > 100 µM

Fc1ccc(F)c(C2SCc3nc4ccccc4n32)c1 (stereo not given)
inactive: CAKI-1 95.5 µM | HL-60 20.1 µM | HOP-62 > 100 µM | IGROV-1 > 100 µM | Malme-3M 57.1 µM | NCI-H23 46.2 µM | OVCAR-3 54.6 µM | OVCAR-5 > 100 µM | OVCAR-8 > 100 µM | RPMI-8226 40 µM | RXF 393 67.6 µM | SF-268 66.4 µM | SK-OV-3 > 100 µM | SNB-19 > 100 µM | SNB-75 > 100 µM | SR 43.9 µM | SW-620 > 100 µM | UO-31 41.3 µM

CCOC(=O)/C=C1\Nc2ccccc2-n2nnnc21
inactive: CAKI-1 > 100 µM | HL-60 > 100 µM | HOP-62 > 100 µM | IGROV-1 > 100 µM | Malme-3M > 100 µM | NCI-H23 > 100 µM | OVCAR-3 > 100 µM | OVCAR-5 > 100 µM | OVCAR-8 > 100 µM | RPMI-8226 64.9 µM | RXF 393 > 100 µM | SF-268 > 100 µM | SK-OV-3 > 100 µM | SNB-19 > 100 µM | SNB-75 > 100 µM | SR > 100 µM | SW-620 23.7 µM | UO-31 > 100 µM

CSc1ccc(/C=C2\CN(C)C/C(=C\c3ccc(SC)cc3)C2=O)cc1
inactive: CAKI-1 > 100 µM | HL-60 21.1 µM | HOP-62 > 100 µM | IGROV-1 32.6 µM | Malme-3M > 100 µM | NCI-H23 4.52 µM | OVCAR-3 13.8 µM | OVCAR-5 > 100 µM | OVCAR-8 13.5 µM | RPMI-8226 2.52 µM | RXF 393 22 µM | SF-268 29.2 µM | SK-OV-3 30.8 µM | SNB-75 12.5 µM | SR 7.57 µM | SW-620 23 µM | UO-31 > 100 µM

COC(=O)C1=CC(O)CCC1c1ccc(OC)cc1 (stereo not given)
inactive: CAKI-1 > 100 µM | HL-60 > 100 µM | HOP-62 > 100 µM | IGROV-1 > 100 µM | Malme-3M > 100 µM | NCI-H23 > 100 µM | OVCAR-3 > 100 µM | OVCAR-5 > 100 µM | OVCAR-8 > 100 µM | RPMI-8226 > 100 µM | RXF 393 > 100 µM | SF-268 > 100 µM | SK-OV-3 > 100 µM | SNB-19 > 100 µM | SNB-75 > 100 µM | SR > 100 µM | SW-620 > 100 µM | UO-31 > 100 µM

C1=C(c2ccccc2)C(OC2Oc3ccccc3C=C2c2ccccc2)Oc2ccccc21 (stereo not given)
inactive: CAKI-1 > 100 µM | HL-60 > 100 µM | HOP-62 > 100 µM | IGROV-1 > 100 µM | Malme-3M > 100 µM | NCI-H23 > 100 µM | OVCAR-3 > 100 µM | OVCAR-5 > 100 µM | OVCAR-8 > 100 µM | RPMI-8226 33.6 µM | RXF 393 > 100 µM | SF-268 > 100 µM | SK-OV-3 > 100 µM | SNB-19 > 100 µM | SNB-75 24.6 µM | SR 33.6 µM | SW-620 31.3 µM | UO-31 > 100 µM

Nc1cn(C2OC(CC(c3ccccc3)(c3ccccc3)c3ccccc3)C(O)C2O)c(=O)[nH]c1=O (stereo not given)
inactive: CAKI-1 19.5 µM | HL-60 17.3 µM | HOP-62 23.4 µM | IGROV-1 23.9 µM | Malme-3M 23.5 µM | NCI-H23 23.5 µM | OVCAR-3 14.5 µM | OVCAR-5 21.2 µM | OVCAR-8 24.9 µM | RPMI-8226 18.7 µM | RXF 393 6.64 µM | SF-268 34.7 µM | SK-OV-3 34.7 µM | SNB-19 26.8 µM | SNB-75 > 100 µM | SR 18.7 µM | SW-620 14.8 µM | UO-31 31.6 µM

CC(=O)C1=C(O)C(N)C2Cc3c(c(O)c4c(O)c(C)ccc4c3C)C(=O)C2(O)C1=O (stereo not given)
inactive: CAKI-1 1.52 µM | HL-60 2.23 µM | HOP-62 1.58 µM | IGROV-1 2.96 µM | Malme-3M 1.29 µM | NCI-H23 1.75 µM | OVCAR-3 1.3 µM | OVCAR-5 4.46 µM | OVCAR-8 1.39 µM | RPMI-8226 1.27 µM | RXF 393 4.43 µM | SF-268 1.18 µM | SK-OV-3 3.53 µM | SNB-19 2.34 µM | SNB-75 3.11 µM | SR 1.64 µM | SW-620 2.79 µM | UO-31 3.18 µM

O=S(=O)(O)c1ccc([Se][Se]c2ccc(S(=O)(=O)O)cc2)cc1
inactive: CAKI-1 > 100 µM | HL-60 > 100 µM | HOP-62 > 100 µM | IGROV-1 > 100 µM | Malme-3M > 100 µM | NCI-H23 > 100 µM | OVCAR-3 > 100 µM | OVCAR-5 > 100 µM | OVCAR-8 > 100 µM | RPMI-8226 72.4 µM | RXF 393 > 100 µM | SF-268 > 100 µM | SK-OV-3 > 100 µM | SNB-19 > 100 µM | SNB-75 > 100 µM | SR 27.9 µM | SW-620 > 100 µM | UO-31 > 100 µM

O=[N+]([O-])c1nccn1CC(O)CN1CC1 (stereo not given)
inactive: CAKI-1 39 µM | HL-60 24.8 µM | HOP-62 74.3 µM | IGROV-1 71.3 µM | Malme-3M > 100 µM | NCI-H23 36.4 µM | OVCAR-3 25.5 µM | OVCAR-5 > 100 µM | OVCAR-8 37.8 µM | RPMI-8226 49.4 µM | RXF 393 25.5 µM | SF-268 91.6 µM | SK-OV-3 35.1 µM | SNB-19 > 100 µM | SNB-75 42.8 µM | SR 27.2 µM | SW-620 63.8 µM | UO-31 37.8 µM
